How the values were obtained:
porcine hepatocyte [1] = test: Metabolic ability of lidocaine in cultured porcine hepatocyte; assay type: cell-based; design: lidocaine metabolic rate: unit not given beside the values; conditions: for lidocaine metabolic rate: lidocaine 1 mg/ml, after 24 hours
human pancreatic islet = test: Morphological study of cultured human pancreatic islet by electron microscope (morphological criteria, points); assay type: cell-based; conditions: human pancreatic islets, day 5 of culture
Protocol: (§1) As the inspection method of cultured pancreatic islets, a method is mentioned in which the following 4 items as morphological criteria are evaluated at 5 levels (1 to 5 points) (see, literature: Matsumoto S, Qualley S A, Goel S, et al., Effect of the two-layer (University of Wisconsin solution-Perfluorochemical plus 02) method of pancreas preservation on human islet isolation as assessed by Edmonton isolation protocol. Transplantation 2002; 74: 1414).
(§2) Evaluation is performed at 5 levels of “flat: 1 point”, “approximately flat: 2 points”, “irregularly spherical: 3 points”, “approximately spherical: 4 points”, and “spherical: 5 points”.
(§3) Evaluation is performed at 5 levels of “irregular: 1 point”, “approximately irregular: 2 points”, “somewhat well-rounded: 3 points”, “approximately well-rounded: 4 points”, and “well-rounded: 5 points”. Among these, “well-rounded: 5 points” is most preferable.
(§4) Evaluation is performed at 5 levels of “fragmented: 1 point”, “approximately fragmented: 2 points”, “somewhat solid/compact: 3 points”, “approximately solid/compact: 4 points”, and “solid/compact: 5 points”. Among these, “solid/compact: 5 points” is most preferable.
Evaluation is performed at 5 levels of “smaller than 100 μm for individual cultured pancreatic islets (all <100 μm): 1 point”, “100 to 150 μm for individual cultured pancreatic islets: 2 points”, “[…] for individual cultured pancreatic islets: 3 points”, “150 to 200 μm for individual cultured pancreatic islets: 4 points”, and “larger than 200 μm for at least 10% of individual cultured pancreatic islets (>10%>200 μm): 5 points”. Among these, “larger than 200 μm for at least 10% of individual cultured pancreatic islets: 5 points” is most preferable. […]

porcine pancreatic islet = test: Morphological study of cultured porcine pancreatic islet by electron microscope (morphological criteria, points); assay type: cell-based; conditions: porcine pancreatic islets, day 5 of culture
Protocol: as §1, §2, §3, §4
Evaluation is performed at 5 levels of “smaller than 100 μm for individual cultured pancreatic islets (all <100 μm): 1 point”, “100 to 150 μm for individual cultured pancreatic islets: 2 points”, “[…] for individual cultured pancreatic islets: 3 points”, “150 to 200 μm for individual cultured pancreatic islets: 4 points”, and “larger than 200 μm for at least 10% of individual cultured pancreatic islets (>10%>200 μm): 5 points”. Among these, “larger than 200 μm for at least 10% of individual cultured pancreatic islets: 5 points” is most preferable.
In the above-described criteria, the shape “flat” means that when a pancreatic islet is considered to be elliptic sphere, the ratio of major axis/minor axis is at least 10, the shape “approximately flat” means that the above-described ratio of major axis/minor axis is at least 5 and less than 10, the shape “irregularly spherical” means that the above-described ratio of major axis/minor axis is at least 2 and less than 5, the shape “approximately spherical” means that the above-described ratio of major axis/minor axis is at least 1.2 and less than 2, and the shape “spherical” means that the above-described ratio of major axis/minor axis is less than 1.2. […]

porcine hepatocyte [2] = test: Morphological study of cultured porcine hepatocyte by phase-contrast and electron microscope; assay type: cell-based
Protocol: Recently, it has been known that when three-dimensional culture of cells is performed on scaffold, cell functions are improved and maintained. […]

porcine hepatocyte [3] = test: Metabolic ability of ammonia in cultured porcine hepatocyte; assay type: cell-based; design: ammonia metabolic rate: unit not given beside the values; conditions: for ammonia metabolic rate: ammonium sulfate 0.56 mM, after 24 hours
human hepatocyte = test: Morphological study of cultured human hepatocyte by phase-contrast and electron microscope; assay type: cell-based; conditions: culture without insert, phase-contrast microscope days 1 and 5, electron microscope day 5
Protocol: Donor liver judged to be unsuitable for transplantation in the United States was obtained from National Disease Research Interchange via HUMAN & ANIMAL BRIDGING […] ORGANIZATION laboratory (Ichikawa city, Chiba prefecture, responsible person) in the form of liver block (130 g) which was then separated into hepatocyte in the same manner as for the above-described isolation of porcine hepatocyte in Example 1.
Recently, it has been known that when three-dimensional culture of cells is performed on scaffold, cell functions are improved and maintained. […] In contrast, human hepatocytes cultured with collagen type I (monolayer) (group B) adhered in flat form to the surface of the culture flask (see, Photograph 1 in FIG. 7(a)). […] As a result, it was clarified that it is more suitable for culture of human hepatocyte to use PuraMatrix of SEQ ID NO:1.

porcine hepatocyte [4] = test: Metabolic ability of diazepam in cultured porcine hepatocyte
Protocol: Large white male pigs (body weight: 15 to 20 kg) were used. 1.5 ml of ketalar for intramuscular injection was injected to cause sedation and then, auricular vein was acquired and 5 mg/kg of isozol and 1 mg/kg of musculax were administered intravenously to obtain muscle relaxation. After endotracheal intubation, peritoneotomy was performed under general anesthesia with sevoflurene under controlled ventilation by an artificial respirator. A liver lateral region of the pig was surgically excised (about 80 g), perfusion was performed through excised cross-section portal vein and hepatic vein. First, the excised liver was perfused with a primary perfusion solution (sodium chloride 9 g/L, potassium chloride 0.42 g/L, sodium hydrogen carbonate 2.1 g/L, glucose 0.9 g/L, HEPES 4.78 g/L, ethylenediamine tetraacetic acid (EDTA) 0.37 g/L), subsequently, perfused with a secondary perfusion solution containing no EDTA (sodium chloride 9 g/L, potassium chloride 0.42 g/L, sodium hydrogen carbonate 2.1 g/L, glucose 0.9 g/L, HEPES 4.78 g/L). Thereafter, perfusion of the liver, kept at 39° C., was done with a dispase solution (sodium chloride 9 g/L, potassium chloride 0.42 g/L, sodium hydrogen carbonate 2.1 g/L, glucose 0.9 g/L, HEPES 4.78 g/L, dispase 8.4 g/L) (available from Godo Shusei K. K., Tokyo, Japan) and finally, with a collagenase solution (sodium chloride 9 g/L, potassium chloride 0.42 g/L, sodium hydrogen carbonate 2.1 g/L, glucose 0.9 g/L, HEPES 4.78 g/L, collagenase 0.5 g/L (available from Nitta Gelatin Inc., Osaka, Japan), calcium chloride monohydrate 0.55 g/L). […]
The metabolic abilities of diazepam in cultured porcine hepatocyte were measured and compared between groups A and B. Diazepam (1 pg/ml) was added to porcine hepatocyte media on days 1, 7 and 14 of culture, and the concentration of diazepam in the media after 24 hours was measured (entrusted to SRL K. K.), and the metabolic rate was calculated.

[5] = porcine hepatocyte, culture with insert, days 1, 7, 14 and 21
[6] = porcine hepatocyte, culture without insert, days 1, 7 and 14
[7] = culture without insert, days 1, 7 and 14

CC(=O)N[C@@H](CCCNC(=N)N)C(=O)N[C@@H](C)C(=O)N[C@@H](CC(=O)O)C(=O)N[C@@H](C)C(=O)N[C@@H](CCCNC(=N)N)C(=O)N[C@@H](C)C(=O)N[C@@H](CC(=O)O)C(=O)N[C@@H](C)C(=O)N[C@@H](CCCNC(=N)N)C(=O)N[C@@H](C)C(=O)N[C@@H](CC(=O)O)C(=O)N[C@@H](C)C(=O)N[C@@H](CCCNC(=N)N)C(=O)N[C@@H](C)C(=O)N[C@@H](CC(=O)O)C(=O)N[C@@H](C)C(N)=O [Group A, Ac-(RADA)4-CONH2]
lidocaine metabolic rate (porcine hepatocyte [1]; Table 2(a), culture without insert, day 1 of culture): 40.0 | lidocaine metabolic rate (porcine hepatocyte [1]; Table 2(a), culture without insert, day 7 of culture): 31.9 | lidocaine metabolic rate (porcine hepatocyte [1]; Table 2(a), culture without insert, day 14 of culture): 19.1 | lidocaine metabolic rate (porcine hepatocyte [1]; Table 2(c), culture with insert, day 1 of culture): 44.0 | lidocaine metabolic rate (porcine hepatocyte [1]; Table 2(c), culture with insert, day 7 of culture): 36.9 | lidocaine metabolic rate (porcine hepatocyte [1]; Table 2(c), culture with insert, day 14 of culture): 32.4 | lidocaine metabolic rate (porcine hepatocyte [1]; Table 2(c), culture with insert, day 21 of culture): 30.2 | lidocaine metabolic rate (porcine hepatocyte [1]; Table 2b, culture without insert, day 1 of culture): 40.8 | lidocaine metabolic rate (porcine hepatocyte [1]; Table 2b, culture without insert, day 7 of culture): 32.2 | lidocaine metabolic rate (porcine hepatocyte [1]; Table 2b, culture without insert, day 14 of culture): 21.0 | lidocaine metabolic rate as compared with collagen type I (monolayer) (group B), Matrigel (group C) and collagen sandwich (group D) (porcine hepatocyte [1]; [5]): significantly better | lidocaine metabolic rate as compared with collagen type I (monolayer) (group B) (porcine hepatocyte [1]; [6]): significantly better | lidocaine metabolic rate as compared with collagen type I (monolayer) (group B) and Matrigel (group C) (porcine hepatocyte [1]; [6]): significantly better | pancreatic islet morphology: 1. shape (human pancreatic islet): 5 (spherical: 5 points) | pancreatic islet morphology: 3. integrity (human pancreatic islet): 5 (solid/compact: 5 points) | pancreatic islet morphology: sum of the evaluation values (human pancreatic islet): 16 points | pancreatic islet morphology: 1. shape (porcine pancreatic islet): 5 (spherical: 5 points) | pancreatic islet morphology: 2. border shape (porcine pancreatic islet): 5 (well-rounded: 5 points) | pancreatic islet morphology: 3. integrity (porcine pancreatic islet): 5 (solid/compact: 5 points) | pancreatic islet morphology: sum of the evaluation values (porcine pancreatic islet): 18 points | formation of cell adhesion apparatus and bile canaliculi between hepatocytes (porcine hepatocyte [2]; culture with insert, day 3 of culture, transmission electron microscope): a cell adhesion apparatus 5 and a bile canaliculi 6 were formed between hepatocytes | formation of three-dimensional spheroid by hepatocytes (porcine hepatocyte [2]; culture without insert, phase-contrast microscope days 1, 7, 14, electron microscope day 5): formation of three-dimensional spheroid by hepatocytes was confirmed | ammonia metabolic rate (porcine hepatocyte [3]; Table 1(a), culture without insert, day 1 of culture): 58.6 | ammonia metabolic rate (porcine hepatocyte [3]; Table 1(a), culture without insert, day 7 of culture): 43.8 | ammonia metabolic rate (porcine hepatocyte [3]; Table 1(a), culture without insert, day 14 of culture): 26.4 | ammonia metabolic rate (porcine hepatocyte [3]; Table 1(c), culture with insert, day 1 of culture): 61.6 | ammonia metabolic rate (porcine hepatocyte [3]; Table 1(c), culture with insert, day 7 of culture): 49.6 | ammonia metabolic rate (porcine hepatocyte [3]; Table 1(c), culture with insert, day 14 of culture): 38.2 | ammonia metabolic rate (porcine hepatocyte [3]; Table 1(c), culture with insert, day 21 of culture): 36.1 | ammonia metabolic rate (porcine hepatocyte [3]; Table 1b, culture without insert, day 1 of culture): 59.8 | ammonia metabolic rate (porcine hepatocyte [3]; Table 1b, culture without insert, day 7 of culture): 44.3 | ammonia metabolic rate (porcine hepatocyte [3]; Table 1b, culture without insert, day 14 of culture): 33.3 | ammonia metabolic rate as compared with collagen type I (monolayer) (group B), Matrigel (group C) and collagen sandwich (group D) (porcine hepatocyte [3]; [5]): significantly better | ammonia metabolic rate as compared with collagen type I (monolayer) (group B) (porcine hepatocyte [3]; [6]): significantly better | ammonia metabolic rate as compared with collagen type I (monolayer) (group B) and Matrigel (group C) (porcine hepatocyte [3]; [6]): significantly better | formation of three-dimensional spheroid by hepatocytes (human hepatocyte): formation of three-dimensional spheroid by hepatocytes was confirmed | diazepam metabolic rate as compared with collagen type I (monolayer) (group B), Matrigel (group C) and collagen sandwich (group D) (porcine hepatocyte [4]; culture with insert, days 1, 7, 14 and 21): significantly better | diazepam metabolic rate as compared with collagen type I (monolayer) (group B) (porcine hepatocyte [4]; [7]): significantly better | diazepam metabolic rate as compared with collagen type I (monolayer) (group B) and Matrigel (group C) (porcine hepatocyte [4]; [7]): significantly better

Reference: patent US8647867B2, “Cell cultivation method and cell culture” (National University Corportion Okayama University, priority 2005, dated 2014)
